ChEMBL document CHEMBL5352421, “Identification of novel piperazine-tethered phthalazines as selective CDK1 inhibitors endowed with in vitro anticancer activity toward the pancreatic cancer” (Eur J Med Chem, 2022)
Activity calls are given as the source filed them. The rule behind the calls is not given here.

What was measured:
[1] = Antiproliferative activity against human MDA-PATC53 cells assessed as growth inhibition incubated at 10 uM for 24 hrs by MTT assay relative to control; format: functional; details: read-out: GI
[2] = Antiproliferative activity against human PL45 cells assessed as growth inhibition incubated at 10 uM for 24 hrs by MTT assay relative to control; format: functional; details: read-out: GI
SK-MEL-1 = assay: Antiproliferative activity against human SK-MEL-1 cells assessed as growth inhibition incubated at 10 uM for 24 hrs by MTT assay relative to control; format: functional; details: read-out: GI
A-375 = assay: Antiproliferative activity against human A-375 cells assessed as growth inhibition incubated at 10 uM for 24 hrs by MTT assay relative to control; format: functional; details: read-out: GI
G-361 = assay: Antiproliferative activity against human G-361 cells assessed as growth inhibition incubated at 10 uM for 24 hrs by MTT assay relative to control; format: functional; details: read-out: GI
MOLT-4 = assay: Antiproliferative activity against human MOLT-4 cells assessed as growth inhibition incubated at 10 uM for 24 hrs by MTT assay relative to control; format: functional; details: read-out: GI
KG-1 = assay: Antiproliferative activity against human KG-1 cells assessed as growth inhibition incubated at 10 uM for 24 hrs by MTT assay relative to control; format: functional; details: read-out: GI
T84 = assay: Antiproliferative activity against human T84 cells assessed as growth inhibition incubated at 10 uM for 24 hrs by MTT assay relative to control; format: functional; details: read-out: GI
HT-29 = assay: Antiproliferative activity against human HT-29 cells assessed as growth inhibition incubated at 10 uM for 24 hrs by MTT assay relative to control; format: functional; details: read-out: GI
MCF7 = assay: Antiproliferative activity against human MCF7 cells assessed as growth inhibition incubated at 10 uM for 24 hrs by MTT assay relative to control; format: functional; details: read-out: GI
BT-549 = assay: Antiproliferative activity against human BT-549 cells assessed as growth inhibition incubated at 10 uM for 24 hrs by MTT assay relative to control; format: functional; details: read-out: GI
[3] = Antiproliferative activity against human MDA-PATC53 cells assessed as growth inhibition incubated for 24 hrs by MTT assay; format: functional, cell-based; details: MDA-PATC53, 24 h
[4] = Antiproliferative activity against human PL45 cells assessed as growth inhibition incubated for 24 hrs by MTT assay; format: functional, cell-based; details: PL45, 24 h
[5] = target: Cyclin-dependent kinase 1 (Homo sapiens, UniProt P06493); assay: Inhibition of CDK1 (unknown origin) by FRET assay
[6] = target: Cyclin-dependent kinase 2 (Homo sapiens, UniProt P24941); assay: Inhibition of CDK2 (unknown origin) by FRET assay
[7] = target: Cyclin-dependent kinase 5 (Homo sapiens, UniProt Q00535); assay: Inhibition of CDK5 (unknown origin) by FRET assay
[8] = Selectivity index, ratio of IC50 for CDK2 (unknown origin) to CDK1 (unknown origin)
[9] = Selectivity index, ratio of IC50 for CDK5 (unknown origin) to CDK1 (unknown origin)
[10] = target: T1, Tyrosine-protein kinase receptor UFO (Homo sapiens, UniProt P30530); assay: Inhibition of AXL (unknown origin) by FRET assay
T1 sequence (P30530 whole entry): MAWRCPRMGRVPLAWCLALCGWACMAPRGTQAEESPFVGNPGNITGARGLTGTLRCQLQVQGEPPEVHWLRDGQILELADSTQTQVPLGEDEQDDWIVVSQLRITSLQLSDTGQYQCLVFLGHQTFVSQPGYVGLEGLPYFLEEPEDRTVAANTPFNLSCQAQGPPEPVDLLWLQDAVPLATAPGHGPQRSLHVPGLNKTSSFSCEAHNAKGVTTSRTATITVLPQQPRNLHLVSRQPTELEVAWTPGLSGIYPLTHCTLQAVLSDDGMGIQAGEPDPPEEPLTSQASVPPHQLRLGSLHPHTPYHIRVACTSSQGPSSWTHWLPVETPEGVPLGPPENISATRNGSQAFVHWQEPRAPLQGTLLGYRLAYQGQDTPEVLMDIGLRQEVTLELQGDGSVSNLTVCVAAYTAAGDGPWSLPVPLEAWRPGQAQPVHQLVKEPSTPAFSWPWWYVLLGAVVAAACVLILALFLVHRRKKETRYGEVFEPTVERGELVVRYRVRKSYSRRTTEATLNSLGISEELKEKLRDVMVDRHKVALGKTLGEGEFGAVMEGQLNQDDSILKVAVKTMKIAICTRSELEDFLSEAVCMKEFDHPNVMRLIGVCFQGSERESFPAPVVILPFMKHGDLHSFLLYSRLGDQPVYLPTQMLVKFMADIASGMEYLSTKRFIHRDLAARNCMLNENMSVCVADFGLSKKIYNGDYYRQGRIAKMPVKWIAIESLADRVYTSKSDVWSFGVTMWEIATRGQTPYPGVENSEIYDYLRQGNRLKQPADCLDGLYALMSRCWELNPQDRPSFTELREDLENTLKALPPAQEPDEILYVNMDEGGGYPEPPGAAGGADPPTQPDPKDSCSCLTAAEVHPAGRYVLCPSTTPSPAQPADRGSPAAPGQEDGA

[11] = target: Protein-tyrosine kinase 2-beta (Homo sapiens, UniProt Q14289); assay: Inhibition of PTK2B (unknown origin) by FRET assay
[12] = target: Fibroblast growth factor receptor (Homo sapiens, UniProt P22607+P11362+P22455+P21802); assay: Inhibition of FGFR (unknown origin) by FRET assay; format: protein assay
[13] = target: Tyrosine-protein kinase JAK1 (Homo sapiens, UniProt P23458); assay: Inhibition of JAK1 (unknown origin) by FRET assay
[14] = target: Insulin-like growth factor 1 receptor (Homo sapiens, UniProt P08069); assay: Inhibition of IGF1R (unknown origin) by FRET assay
[15] = target: Serine/threonine-protein kinase B-raf (Homo sapiens, UniProt P15056); assay: Inhibition of BRAF (unknown origin) by FRET assay
MDA-PATC53 [16] = assay: Downregulation of CDK1 expression in human MDA-PATC53 cells incubated at IC50 for 24 hrs by Western blotting analysis; format: functional, cell-based
[17] = Induction of cell cycle arrest in human MDA-PATC53 cells assessed as accumulation of cells at G2/M phase incubated at IC50 for 24 hrs measured by flow cytometric analysis (reference value: 9%); format: functional
MDA-PATC53 [18] = assay: Induction of cell cycle arrest in human MDA-PATC53 cells assessed as accumulation of cells at S phase incubated at IC50 for 24 hrs measured by flow cytometric analysis; format: functional, cell-based

Cyclin-dependent kinase 5, sequence (Q00535 whole entry): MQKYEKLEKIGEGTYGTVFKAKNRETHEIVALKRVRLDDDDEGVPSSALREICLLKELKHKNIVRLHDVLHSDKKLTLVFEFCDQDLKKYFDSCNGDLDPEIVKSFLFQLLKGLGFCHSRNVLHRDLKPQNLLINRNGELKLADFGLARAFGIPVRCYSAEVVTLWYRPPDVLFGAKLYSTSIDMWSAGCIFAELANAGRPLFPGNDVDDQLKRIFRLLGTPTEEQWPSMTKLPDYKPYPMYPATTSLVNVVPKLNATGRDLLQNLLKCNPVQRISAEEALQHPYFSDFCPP
Tyrosine-protein kinase JAK1, sequence (P23458 whole entry): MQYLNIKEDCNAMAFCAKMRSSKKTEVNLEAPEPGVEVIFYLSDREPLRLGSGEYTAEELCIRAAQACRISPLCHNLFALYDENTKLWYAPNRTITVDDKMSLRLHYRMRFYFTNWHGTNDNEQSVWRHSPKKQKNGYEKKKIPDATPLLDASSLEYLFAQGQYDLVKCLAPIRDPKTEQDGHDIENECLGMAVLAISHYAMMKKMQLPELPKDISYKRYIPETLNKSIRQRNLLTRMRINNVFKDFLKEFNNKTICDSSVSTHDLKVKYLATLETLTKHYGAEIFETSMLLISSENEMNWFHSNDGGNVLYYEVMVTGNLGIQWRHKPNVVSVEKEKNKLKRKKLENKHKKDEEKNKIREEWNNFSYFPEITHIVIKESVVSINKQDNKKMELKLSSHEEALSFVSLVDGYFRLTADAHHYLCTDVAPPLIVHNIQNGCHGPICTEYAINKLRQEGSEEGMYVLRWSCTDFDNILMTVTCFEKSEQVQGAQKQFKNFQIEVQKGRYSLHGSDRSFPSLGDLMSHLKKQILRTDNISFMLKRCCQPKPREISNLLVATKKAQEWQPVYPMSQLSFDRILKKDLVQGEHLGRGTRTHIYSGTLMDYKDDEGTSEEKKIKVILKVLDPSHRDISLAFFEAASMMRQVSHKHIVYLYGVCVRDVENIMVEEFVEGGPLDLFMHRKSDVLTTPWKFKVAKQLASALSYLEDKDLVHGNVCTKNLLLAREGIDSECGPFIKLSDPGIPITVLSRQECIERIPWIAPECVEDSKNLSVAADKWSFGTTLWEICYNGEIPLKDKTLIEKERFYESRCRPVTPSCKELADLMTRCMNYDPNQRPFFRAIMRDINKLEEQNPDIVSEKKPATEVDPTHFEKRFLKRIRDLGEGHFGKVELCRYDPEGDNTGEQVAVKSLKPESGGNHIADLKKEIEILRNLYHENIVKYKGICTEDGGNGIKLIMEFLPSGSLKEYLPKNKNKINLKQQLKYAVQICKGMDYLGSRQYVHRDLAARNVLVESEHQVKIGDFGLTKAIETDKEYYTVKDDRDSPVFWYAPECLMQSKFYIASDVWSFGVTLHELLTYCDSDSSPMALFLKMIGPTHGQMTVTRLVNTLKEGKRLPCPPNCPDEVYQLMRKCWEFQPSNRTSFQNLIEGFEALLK
Insulin-like growth factor 1 receptor, sequence (P08069 31-736 limits assumed): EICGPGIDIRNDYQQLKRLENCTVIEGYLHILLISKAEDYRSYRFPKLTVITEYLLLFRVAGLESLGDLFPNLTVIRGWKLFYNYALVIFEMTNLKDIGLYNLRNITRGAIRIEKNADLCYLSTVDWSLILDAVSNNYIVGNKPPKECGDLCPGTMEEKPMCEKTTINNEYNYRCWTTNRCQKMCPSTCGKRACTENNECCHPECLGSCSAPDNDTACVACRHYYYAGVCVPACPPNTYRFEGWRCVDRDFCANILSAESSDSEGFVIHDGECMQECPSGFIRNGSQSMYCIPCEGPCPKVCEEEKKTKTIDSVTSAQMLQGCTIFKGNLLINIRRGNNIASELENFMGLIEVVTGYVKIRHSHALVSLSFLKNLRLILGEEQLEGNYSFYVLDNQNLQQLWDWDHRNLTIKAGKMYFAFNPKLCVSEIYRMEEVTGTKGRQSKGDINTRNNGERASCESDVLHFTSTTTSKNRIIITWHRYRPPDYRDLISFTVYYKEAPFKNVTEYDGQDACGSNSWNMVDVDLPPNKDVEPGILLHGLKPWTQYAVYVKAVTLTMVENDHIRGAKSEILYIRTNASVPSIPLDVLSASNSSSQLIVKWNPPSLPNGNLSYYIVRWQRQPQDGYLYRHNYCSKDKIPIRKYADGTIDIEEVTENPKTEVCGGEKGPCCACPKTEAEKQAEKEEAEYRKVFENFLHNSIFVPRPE
Insulin-like growth factor 1 receptor, sequence (P08069 741-1367 limits assumed): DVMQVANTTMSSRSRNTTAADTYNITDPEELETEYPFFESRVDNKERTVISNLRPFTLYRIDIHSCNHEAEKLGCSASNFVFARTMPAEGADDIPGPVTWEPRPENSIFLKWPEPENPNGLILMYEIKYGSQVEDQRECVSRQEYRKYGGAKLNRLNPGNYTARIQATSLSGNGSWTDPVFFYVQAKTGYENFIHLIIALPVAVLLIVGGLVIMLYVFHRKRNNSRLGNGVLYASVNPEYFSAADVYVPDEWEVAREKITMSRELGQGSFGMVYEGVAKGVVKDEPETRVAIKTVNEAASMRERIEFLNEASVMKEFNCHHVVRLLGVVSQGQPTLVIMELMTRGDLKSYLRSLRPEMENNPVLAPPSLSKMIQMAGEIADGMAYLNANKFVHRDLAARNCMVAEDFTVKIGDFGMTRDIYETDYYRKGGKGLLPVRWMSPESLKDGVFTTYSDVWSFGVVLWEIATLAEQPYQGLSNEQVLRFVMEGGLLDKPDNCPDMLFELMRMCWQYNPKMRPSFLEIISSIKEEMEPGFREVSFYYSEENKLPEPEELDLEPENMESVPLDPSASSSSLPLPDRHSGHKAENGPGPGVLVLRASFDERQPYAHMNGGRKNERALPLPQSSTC
Cyclin-dependent kinase 1, sequence (P06493 whole entry): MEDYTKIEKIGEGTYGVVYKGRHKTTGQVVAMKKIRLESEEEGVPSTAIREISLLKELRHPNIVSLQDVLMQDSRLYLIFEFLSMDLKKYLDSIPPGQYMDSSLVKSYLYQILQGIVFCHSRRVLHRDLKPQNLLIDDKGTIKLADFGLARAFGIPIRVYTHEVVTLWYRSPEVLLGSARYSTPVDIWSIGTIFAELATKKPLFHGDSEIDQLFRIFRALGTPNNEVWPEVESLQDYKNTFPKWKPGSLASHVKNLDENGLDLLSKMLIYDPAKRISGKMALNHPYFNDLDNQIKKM
Serine/threonine-protein kinase B-raf, sequence (P15056 whole entry): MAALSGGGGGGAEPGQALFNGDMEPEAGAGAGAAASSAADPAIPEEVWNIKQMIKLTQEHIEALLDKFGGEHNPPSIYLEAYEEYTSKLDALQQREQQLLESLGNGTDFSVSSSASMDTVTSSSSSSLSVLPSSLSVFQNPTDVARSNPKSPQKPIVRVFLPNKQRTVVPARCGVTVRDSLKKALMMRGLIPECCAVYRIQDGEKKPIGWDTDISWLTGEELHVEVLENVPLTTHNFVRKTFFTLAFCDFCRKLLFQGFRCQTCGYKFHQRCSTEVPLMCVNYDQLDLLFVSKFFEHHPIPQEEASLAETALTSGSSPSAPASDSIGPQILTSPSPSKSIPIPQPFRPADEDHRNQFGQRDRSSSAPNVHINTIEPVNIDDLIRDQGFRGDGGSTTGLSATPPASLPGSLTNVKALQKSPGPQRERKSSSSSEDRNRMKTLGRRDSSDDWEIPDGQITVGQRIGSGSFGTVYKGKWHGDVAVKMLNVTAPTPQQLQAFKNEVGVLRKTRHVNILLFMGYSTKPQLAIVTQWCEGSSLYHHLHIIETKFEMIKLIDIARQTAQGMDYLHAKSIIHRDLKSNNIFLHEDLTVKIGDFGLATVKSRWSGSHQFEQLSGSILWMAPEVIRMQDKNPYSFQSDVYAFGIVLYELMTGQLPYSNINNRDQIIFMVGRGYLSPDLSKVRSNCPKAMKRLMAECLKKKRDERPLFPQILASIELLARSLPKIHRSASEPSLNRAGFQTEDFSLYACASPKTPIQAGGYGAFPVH
Protein-tyrosine kinase 2-beta, sequence (Q14289 whole entry): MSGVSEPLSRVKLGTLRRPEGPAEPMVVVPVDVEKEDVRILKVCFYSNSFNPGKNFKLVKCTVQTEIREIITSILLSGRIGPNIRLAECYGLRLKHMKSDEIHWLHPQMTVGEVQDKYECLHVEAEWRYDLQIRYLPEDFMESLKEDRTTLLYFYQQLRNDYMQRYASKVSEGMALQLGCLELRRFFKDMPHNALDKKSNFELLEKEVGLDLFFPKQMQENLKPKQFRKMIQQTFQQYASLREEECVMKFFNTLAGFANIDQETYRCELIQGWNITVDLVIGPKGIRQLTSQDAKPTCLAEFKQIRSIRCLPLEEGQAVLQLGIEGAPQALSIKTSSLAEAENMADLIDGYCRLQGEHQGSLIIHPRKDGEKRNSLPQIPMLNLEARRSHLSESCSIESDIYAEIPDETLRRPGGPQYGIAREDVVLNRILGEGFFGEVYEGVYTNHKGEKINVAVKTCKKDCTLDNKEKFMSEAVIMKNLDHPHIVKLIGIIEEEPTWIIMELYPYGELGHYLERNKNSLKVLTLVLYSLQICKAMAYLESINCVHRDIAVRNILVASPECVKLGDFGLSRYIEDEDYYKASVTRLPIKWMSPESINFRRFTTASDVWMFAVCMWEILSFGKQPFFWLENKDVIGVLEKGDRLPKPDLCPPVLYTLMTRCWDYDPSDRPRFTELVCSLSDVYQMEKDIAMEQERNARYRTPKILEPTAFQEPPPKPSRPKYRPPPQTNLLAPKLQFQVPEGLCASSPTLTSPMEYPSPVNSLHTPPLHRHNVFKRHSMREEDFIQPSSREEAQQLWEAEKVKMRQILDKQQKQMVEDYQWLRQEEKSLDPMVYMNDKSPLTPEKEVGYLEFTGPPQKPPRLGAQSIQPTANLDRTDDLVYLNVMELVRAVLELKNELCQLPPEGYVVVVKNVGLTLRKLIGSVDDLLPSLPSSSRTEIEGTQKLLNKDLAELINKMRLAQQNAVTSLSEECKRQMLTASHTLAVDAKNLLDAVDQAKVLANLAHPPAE

COc1ccc(Cc2nnc(N3CCN(C(=S)Nc4cccc(Cl)c4)CC3)c3ccccc23)cc1
inhibition of growth at 10 µM [1]: 97.1%
inhibition of growth at 10 µM [2]: 93.5%
inhibition of growth at 10 µM (SK-MEL-1): 84.2%
inhibition of growth at 10 µM (A-375): 86.4%
inhibition of growth at 10 µM (G-361): 92.3%
inhibition of growth at 10 µM (MOLT-4): 89.3%
inhibition of growth at 10 µM (KG-1): 74.2%
inhibition of growth at 10 µM (T84): 88.2%
inhibition of growth at 10 µM (HT-29): 85%
inhibition of growth at 10 µM (MCF7): 62%
inhibition of growth at 10 µM (BT-549): 78%
IC50 [3]: 0.73 µM
IC50 [4]: 1 µM
IC50 [5]: 0.0422 µM
IC50 [6]: 0.189 µM
IC50 [7]: 0.354 µM
Ratio IC50 [8]: 4.47
Ratio IC50 [9]: 8.39
IC50 [10]: 5.65 µM
IC50 [11]: 8.95 µM
IC50 [12]: 2.538 µM
IC50 [13]: 2.42 µM
IC50 [14]: 8.55 µM
IC50 [15]: 8.14 µM
Activity (MDA-PATC53 [16]): Active
Activity [17]: 14%
Activity (MDA-PATC53 [18]): Active

S=C(Nc1cccc(Cl)c1)N1CCN(c2nnc(Cc3ccccc3)c3ccccc23)CC1
inhibition of growth at 10 µM [1]: 96.8%
inhibition of growth at 10 µM [2]: 95.3%
inhibition of growth at 10 µM (SK-MEL-1): 85.4%
inhibition of growth at 10 µM (A-375): 76.1%
inhibition of growth at 10 µM (G-361): 88%
inhibition of growth at 10 µM (MOLT-4): 85%
inhibition of growth at 10 µM (KG-1): 69.1%
inhibition of growth at 10 µM (T84): 81.7%
inhibition of growth at 10 µM (HT-29): 84.3%
inhibition of growth at 10 µM (MCF7): 78.2%
inhibition of growth at 10 µM (BT-549): 79.3%
IC50 [3]: 0.88 µM
IC50 [4]: 1.14 µM
IC50 [5]: 0.0445 µM
IC50 [6]: 0.622 µM
IC50 [7]: 0.135 µM
Ratio IC50 [8]: 14
Ratio IC50 [9]: 3.04
IC50 [10]: 2.49 µM
IC50 [11]: 8.96 µM
IC50 [12]: 7.62 µM
IC50 [13]: 8.54 µM
IC50 [14]: 4.29 µM
IC50 [15]: 1.16 µM
Activity (MDA-PATC53 [16]): Active
Activity [17]: 16%
Activity (MDA-PATC53 [18]): Active

COc1ccc(Cc2nnc(N3CCN(C(=O)Nc4ccc(Cl)c(C(F)(F)F)c4)CC3)c3ccccc23)cc1
inhibition of growth at 10 µM [1]: 99%
inhibition of growth at 10 µM [2]: 97.6%
inhibition of growth at 10 µM (SK-MEL-1): 74%
inhibition of growth at 10 µM (A-375): 89.2%
inhibition of growth at 10 µM (G-361): 61.4%
inhibition of growth at 10 µM (MOLT-4): 84.1%
inhibition of growth at 10 µM (KG-1): 72.3%
inhibition of growth at 10 µM (T84): 89.6%
inhibition of growth at 10 µM (HT-29): 87.4%
inhibition of growth at 10 µM (MCF7): 71.4%
inhibition of growth at 10 µM (BT-549): 85.5%
IC50 [3]: 0.51 µM
IC50 [4]: 0.74 µM
IC50 [5]: 0.0368 µM
IC50 [6]: 0.305 µM
IC50 [7]: 0.369 µM
Ratio IC50 [8]: 8.29
Ratio IC50 [9]: 10
IC50 [10]: 5.65 µM
IC50 [11]: 3.63 µM
IC50 [12]: 4.626 µM
IC50 [13]: 5.26 µM
IC50 [14]: 5.51 µM
IC50 [15]: 2.83 µM
Activity (MDA-PATC53 [16]): Active
Activity [17]: 21%
Activity (MDA-PATC53 [18]): Active

O=C(Nc1ccc(Cl)c(C(F)(F)F)c1)N1CCN(c2nnc(Cc3ccccc3)c3ccccc23)CC1
inhibition of growth at 10 µM [1]: 55.4%
inhibition of growth at 10 µM [2]: 42.4%
inhibition of growth at 10 µM (SK-MEL-1): 3.34%
inhibition of growth at 10 µM (A-375): 9.17%
inhibition of growth at 10 µM (G-361): 2.47%
inhibition of growth at 10 µM (MOLT-4): 5.22%
inhibition of growth at 10 µM (KG-1): 1.35%
inhibition of growth at 10 µM (T84): 4.71%
inhibition of growth at 10 µM (HT-29): 18.9%
inhibition of growth at 10 µM (MCF7): 2.2%
inhibition of growth at 10 µM (BT-549): 1.08%
IC50 [3]: 8.6 µM
IC50 [4]: 13.1 µM
IC50 [5]: 0.104 µM
IC50 [6]: 0.722 µM
IC50 [7]: 0.405 µM
Ratio IC50 [8]: 6.97
Ratio IC50 [9]: 3.91
IC50 [10]: 6.95 µM
IC50 [11]: 2.68 µM
IC50 [12]: 8.565 µM
IC50 [13]: 5.18 µM
IC50 [14]: 4.25 µM
IC50 [15]: 1.48 µM
